One test deals with TNFα. Description: cells. In kind it is cell-based, human. To be noted: Homo sapiens, Monocyte, LPS-stimulated human monocytes, TNFα content; read-out: EC50 TNF.
The target in a further test is IRAK4 enzyme (Homo sapiens (Human), UniProt Q9NWZ3). Description: biochemical. Type of test: biochemical. To be noted: IRAK4 enzyme, TR-FRET, 500 μM ATP. A general note: Time-resolved FRET reads energy transfer from a long-lived donor to a nearby acceptor.
IRAK4 enzyme, sequence (Q9NWZ3 whole entry): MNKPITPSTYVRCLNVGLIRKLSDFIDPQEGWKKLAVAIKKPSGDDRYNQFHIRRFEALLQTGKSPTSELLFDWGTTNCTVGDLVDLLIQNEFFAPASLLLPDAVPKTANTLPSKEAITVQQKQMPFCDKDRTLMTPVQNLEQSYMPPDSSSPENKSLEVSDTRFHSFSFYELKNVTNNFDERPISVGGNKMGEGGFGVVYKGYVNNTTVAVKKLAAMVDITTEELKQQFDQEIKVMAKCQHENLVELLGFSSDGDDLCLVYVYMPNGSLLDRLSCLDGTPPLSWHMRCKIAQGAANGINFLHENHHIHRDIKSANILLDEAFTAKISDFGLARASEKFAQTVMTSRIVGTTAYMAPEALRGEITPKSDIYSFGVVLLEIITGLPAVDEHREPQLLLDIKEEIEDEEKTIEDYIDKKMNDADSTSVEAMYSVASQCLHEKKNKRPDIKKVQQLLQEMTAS

On to `CC(C)Nc1cc(-c2ccc3cc(C#N)cnn23)ncc1C(=O)N[C@H]1CCC[C@H](O)C1` [Example 191, 6-(3-cyanopyrrolo[1,2-b]pyridazin-7-yl)-N-((1S,3S)-3-hydroxycyclohexyl)-4-(isopropylamino) nicotinamide], for which the EC50 in the test with TNFα turned out to be 128 nM. In addition, half-maximal inhibition against IRAK4 enzyme (IC50) required 4 nM.

Regarding `CC(C)Nc1cc(-c2ccc3cc(C#N)cnn23)ncc1C(=O)N[C@@H]1CCC[C@@H](O)C1` [Example 192, 6-(3-cyanopyrrolo[1,2-b]pyridazin-7-yl)-N-((1R,3R)-3-hydroxycyclohexyl)-4-(isopropylamino) nicotinamide], the half-maximal effective concentration (EC50) in the test on TNFα was determined as 157 nM. This molecule also displayed a half-inhibitory concentration (IC50) on IRAK4 enzyme of 5 nM.

On to `CC(C)Nc1cc(-c2ccc3cc(C#N)cnn23)ncc1C(=O)N[C@@H]1CCC[C@H](O)C1` [Example 193, 6-(3-cyanopyrrolo[1,2-b]pyridazin-7-yl)-N-((1R,3S)-3-hydroxycyclohexyl)-4-(isopropylamino) nicotinamide], for which, in the test with TNFα, the EC50 is 141 nM. The molecule also registered a half-inhibitory concentration (IC50) against IRAK4 enzyme of 3 nM.

For the molecule `CC(C)(O)[C@H](F)CNC(=O)c1cnc(-c2ccc3cc(C#N)cnn23)cc1N[C@@H]1CCOC1` [Example 194, 6-(3-cyanopyrrolo[1,2-b]pyridazin-7-yl)-N-((R)-2-fluoro-3-hydroxy-3-methylbutyl)-4-(((R)-tetrahydrofuran-3-yl)amino)nicotinamide], the EC50 in the test with TNFα was determined as 48 nM. On IRAK4 enzyme, this molecule yielded an IC50 of under 1 nM.

Turning to `CC(C)(O)[C@H](F)CNC(=O)c1cnc(-c2ccc3cc(C#N)cnn23)cc1N[C@H]1CCOC1` [Example 195, 6-(3-cyanopyrrolo[1,2-b]pyridazin-7-yl)-N-((R)-2-fluoro-3-hydroxy-3-methylbutyl)-4-(((S)-tetrahydrofuran-3-yl)amino)nicotinamide], the EC50 in the test on TNFα came to 37 nM. The IC50 on IRAK4 enzyme is under 1 nM.

`COC(=O)N1Cc2ccc(Nc3cc(-c4ccc5cc(C#N)cnn45)ncc3C(=O)NC[C@@H](F)C(C)(C)O)cc2C1` [Example 196, (R)-methyl 5-((2-(3-cyanopyrrolo[1,2-b]pyridazin-7-yl)-5-((2-fluoro-3-hydroxy-3-methylbutyl)carbamoyl)pyridin-4-yl)amino)isoindoline-2-carboxylate]: the EC50 with TNFα is 53 nM. For the same molecule, the IC50 against IRAK4 enzyme came to 2 nM.

Regarding `CC(=O)N1Cc2ccc(Nc3cc(-c4ccc5cc(C#N)cnn45)ncc3C(=O)NC[C@@H](F)C(C)(C)O)cc2C1` [Example 197, (R)-4-((2-acetylisoindolin-5-yl)amino)-6-(3-cyanopyrrolo[1,2-b]pyridazin-7-yl)-N-(2-fluoro-3-hydroxy-3-methylbutyl)nicotinamide], the EC50 in the test on TNFα amounted to 42 nM. Further, the IC50 on IRAK4 enzyme was determined as 1 nM.

Take `CC(C)(O)[C@H](F)CNC(=O)c1cnc(-c2ccc3cc(C#N)cnn23)cc1Nc1ccc(CNCC(F)(F)F)cc1` [Example 198, (R)-6-(3-cyanopyrrolo[1,2-b]pyridazin-7-yl)-N-(2-fluoro-3-hydroxy-3-methylbutyl)-4-((4-(((2,2,2-trifluoroethyl)amino)methyl)phenyl)amino)nicotinamide]: in the test on TNFα, the EC50 amounted to 16 nM. On IRAK4 enzyme, this molecule came in with an IC50 of under 1 nM.

As to `CC(C)(O)[C@H](F)CNC(=O)c1cnc(-c2ccc3cc(C#N)cnn23)cc1Nc1cnn([C@H]2CCN(C3COC3)C2)c1` [Example 199, 6-(3-cyanopyrrolo[1,2-b]pyridazin-7-yl)-N-((R)-2-fluoro-3-hydroxy-3-methylbutyl)-4-((1-((S)-1-(oxetan-3-yl)pyrrolidin-3-yl)-1H-pyrazol-4-yl)amino)nicotinamide], the concentration giving a half-maximal response (EC50) with TNFα came out at 82 nM. In addition, the IC50 against IRAK4 enzyme was under 1 nM.

Regarding `CC(C)(O)[C@H](F)CNC(=O)c1cnc(-c2ccc3cc(C#N)cnn23)cc1Nc1ccc(CN2CCCC2=O)cc1` [Example 200, (R)-6-(3-cyanopyrrolo[1,2-b]pyridazin-7-yl)-N-(2-fluoro-3-hydroxy-3-methylbutyl)-4-((4-((2-oxopyrrolidin-1-yl)methyl)phenyl)amino) nicotinamide], in the test with TNFα, the EC50 is 15 nM. The molecule also yielded an IC50 against IRAK4 enzyme of 1 nM.

As for `CC(C)(O)[C@H](F)CNC(=O)c1cnc(-c2ccc3cc(C#N)cnn23)cc1Nc1ccc(CN2CCOC2=O)cc1` [Example 201, (R)-6-(3-cyanopyrrolo[1,2-b]pyridazin-7-yl)-N-(2-fluoro-3-hydroxy-3-methylbutyl)-4-((4-((2-oxooxazolidin-3-yl)methyl)phenyl)amino) nicotinamide], the EC50 in the test with TNFα amounted to 11 nM. Besides, half-maximal inhibition at IRAK4 enzyme (IC50) required 1 nM.

Take `CC(C)(O)[C@H](F)CNC(=O)c1cnc(-c2ccc3cc(C#N)cnn23)cc1Nc1ccc(CNC(=O)C2CC2)cc1` [Example 202, (R)-6-(3-cyanopyrrolo[1,2-b]pyridazin-7-yl)-4-((4-(cyclopropane-carboxamidomethyl)phenyl)amino)-N-(2-fluoro-3-hydroxy-3-methylbutyl)nicotinamide]: the EC50 with TNFα amounted to 22 nM. At IRAK4 enzyme, this molecule showed an IC50 of under 1 nM.

Regarding `CC(C)C(=O)NCc1ccc(Nc2cc(-c3ccc4cc(C#N)cnn34)ncc2C(=O)NC[C@@H](F)C(C)(C)O)cc1` [Example 203, (R)-6-(3-cyanopyrrolo[1,2-b]pyridazin-7-yl)-N-(2-fluoro-3-hydroxy-3-methylbutyl)-4-((4-(isobutyramidomethyl)phenyl)amino) nicotinamide], the 50% effective concentration (EC50) in the test on TNFα was 44 nM. On IRAK4 enzyme, this molecule showed an IC50 of under 1 nM.

On to `CCC(=O)NCc1ccc(Nc2cc(-c3ccc4cc(C#N)cnn34)ncc2C(=O)NC[C@@H](F)C(C)(C)O)cc1` [Example 204, (R)-6-(3-cyanopyrrolo[1,2-b]pyridazin-7-yl)-N-(2-fluoro-3-hydroxy-3-methylbutyl)-4-((4-(propionamido-methyl)phenyl)amino)nicotinamide], for which the EC50 in the test with TNFα was found to be 27 nM. For the same molecule, the IC50 on IRAK4 enzyme is under 1 nM.

Regarding `CC(C)(O)[C@H](F)CNC(=O)c1cnc(-c2ccc3cc(C#N)cnn23)cc1Nc1ccc(CN2CC(F)(F)C2)cc1` [Example 205, (R)-6-(3-cyanopyrrolo[1,2-b]pyridazin-7-yl)-4-((4-((3,3-difluoroazetidin-1-yl)methyl)phenyl)amino)-N-(2-fluoro-3-hydroxy-3-methylbutyl) nicotinamide], in the test on TNFα, the EC50 came out at 115 nM. On IRAK4 enzyme, this molecule registered an IC50 of 1 nM.

Consider `CC(C)(O)[C@H](F)CNC(=O)c1cnc(-c2ccc3cc(C#N)cnn23)cc1Nc1cnn([C@@H]2CCN(C3COC3)C2)c1` [Example 206, 6-(3-cyanopyrrolo[1,2-b]pyridazin-7-yl)-N-((R)-2-fluoro-3-hydroxy-3-methylbutyl)-4-((1-((R)-1-(oxetan-3-yl)pyrrolidin-3-yl)-1H-pyrazol-4-yl)amino)nicotinamide], for which, in the test with TNFα, the EC50 worked out at 133 nM. For the same molecule, the midpoint of inhibition on IRAK4 enzyme, the IC50, lay at 1 nM.

Take `Cc1ncc(-c2ccc(Nc3cc(-c4ccc5cc(C#N)cnn45)ncc3C(=O)NC[C@@H](F)C(C)(C)O)cc2)o1` [Example 207, (R)-6-(3-cyanopyrrolo[1,2-b]pyridazin-7-yl)-N-(2-fluoro-3-hydroxy-3-methylbutyl)-4-((4-(2-methyloxazol-5-yl)phenyl)amino) nicotinamide]: in the test with TNFα, the EC50 was found to be 96 nM. This molecule came in with an IC50 on IRAK4 enzyme of 1 nM.

For the molecule `CC(C)(O)[C@H](F)CNC(=O)c1cnc(-c2ccc3cc(C#N)cnn23)cc1Nc1cnn([C@@H]2CCNC2)c1` [Example 208, 6-(3-cyanopyrrolo[1,2-b]pyridazin-7-yl)-N-((R)-2-fluoro-3-hydroxy-3-methylbutyl)-4-((1-((R)-pyrrolidin-3-yl)-1H-pyrazol-4-yl)amino) nicotinamide], the concentration giving a half-maximal response (EC50) in the test on TNFα was 92 nM. Besides, the IC50 against IRAK4 enzyme is under 1 nM.

As to `Cc1nnc(-c2ccc(Nc3cc(-c4ccc5cc(C#N)cnn45)ncc3C(=O)NC[C@@H](F)C(C)(C)O)cc2)o1` [Example 209, (R)-6-(3-cyanopyrrolo[1,2-b]pyridazin-7-yl)-N-(2-fluoro-3-hydroxy-3-methylbutyl)-4-((4-(5-methyl-1,3,4-oxadiazol-2-yl)phenyl)amino) nicotinamide], the concentration giving a half-maximal response (EC50) in the test with TNFα came out at 84 nM. The IC50 at IRAK4 enzyme is under 1 nM.

As for `Cn1cncc1-c1ccc(Nc2cc(-c3ccc4cc(C#N)cnn34)ncc2C(=O)NC[C@@H](F)C(C)(C)O)cc1` [Example 210, (R)-6-(3-cyanopyrrolo[1,2-b]pyridazin-7-yl)-N-(2-fluoro-3-hydroxy-3-methylbutyl)-4-((4-(1-methyl-1H-imidazol-5-yl)phenyl)amino) nicotinamide], the EC50 with TNFα amounted to 39 nM. For the same molecule, the IC50 at IRAK4 enzyme was under 1 nM.

For the molecule `CC(=O)NC1(c2ccc(Nc3cc(-c4ccc5cc(C#N)cnn45)ncc3C(=O)NC[C@@H](F)C(C)(C)O)cc2)CC1` [Example 211, (R)-4-((4-(1-acetamidocyclo-propyl)phenyl)amino)-6-(3-cyanopyrrolo[1,2-b]pyridazin-7-yl)-N-(2-fluoro-3-hydroxy-3-methylbutyl)nicotinamide], the EC50 in the test with TNFα came to 50 nM. The molecule further came in with an IC50 on IRAK4 enzyme of 1 nM.

For `COC(=O)NC1(c2ccc(Nc3cc(-c4ccc5cc(C#N)cnn45)ncc3C(=O)NC[C@@H](F)C(C)(C)O)cc2)CC1` [Example 212, (R)-methyl (1-(4-((2-(3-cyanopyrrolo[1,2-b]pyridazin-7-yl)-5-((2-fluoro-3-hydroxy-3-methylbutyl)carbamoyl)pyridin-4-yl)amino)phenyl)cyclopropyl)carbamate], the EC50 with TNFα came to 13 nM. On IRAK4 enzyme, this molecule came in with a 50% inhibitory concentration (IC50) of under 1 nM.

Take `CC(C)(O)[C@H](F)CNC(=O)c1cnc(-c2ccc3cc(C#N)cnn23)cc1Nc1ccc(N2CCNCC2)nc1` [Example 213, (R)-6-(3-cyanopyrrolo[1,2-b]pyridazin-7-yl)-N-(2-fluoro-3-hydroxy-3-methylbutyl)-4-((6-(piperazin-1-yl)pyridin-3-yl)amino) nicotinamide]: in the test with TNFα, the EC50 amounted to 51 nM. This molecule gave an IC50 on IRAK4 enzyme of under 1 nM.

Regarding `COC(=O)NC(C)(C)c1ccc(Nc2cc(-c3ccc4cc(C#N)cnn34)ncc2C(=O)NC[C@@H](F)C(C)(C)O)cc1` [Example 214, (R)-methyl(2-(4-((2-(3-cyanopyrrolo[1,2-b]pyridazin-7-yl)-5-((2-fluoro-3-hydroxy-3-methylbutyl)carbamoyl)pyridin-4-yl)amino)phenyl)propan-2-yl)carbamate], in the test with TNFα, the EC50 amounted to 36 nM. On IRAK4 enzyme, this molecule showed an IC50 of 3 nM.

The EC50 is the midpoint of the concentration-response curve. Broadly, the IC50 is the midpoint of a concentration-inhibition curve. Lower therefore signals inhibition by little substance.

Values taken from US10336762B2 (priority 2017, dated 2019).
